Experimental findings from patent US12492243B2, “DNA antibody constructs for use against Pseudomonas aeruginosa” (priority 2016, dated 2025) are described below.

The test system of the experiment is Pseudomonas aeruginosa strain 6077. Nature of the experiment: Lethal pneumonia challenge in BALB/c mice. The class given is in vivo. To be noted: MEM 2.3 mg/kg alone or DMAb-DVSF3 100 μg, lethal PA 6077. As to the method: The unrelated dengue virus DMAb-DVSF3^20 was included as a control. A fourth group of animals received an intraperitoneal (IP) injection of purified protein IgG ABC123 (2 mg/kg) on day −1 before challenge. […] Animals were monitored for 6 days following intranasal challenge for survival as described in^16. Briefly, animals were anesthetized with ketamine and xylazine followed by intranasal administration of the bacterial inoculum contained in 0.05 ml. […] IL-1β, IL-6 and KC/GRO were quantified from the supernatant of lung homogenates using a multiplex kit (Meso Scale Diagnostics) according to the manufactures instructions. For DMAb and meropenem (MEM) combination experiments, MEM was administered subcutaneously 4 hours after infection.

On to `C[C@@H](O)[C@H]1C(=O)N2C(C(=O)O)=C(S[C@@H]3CN[C@H](C(=O)N(C)C)C3)[C@H](C)[C@H]12` [MEM, meropenem, reference compound], for which the “survival, DMAb and meropenem combination experiment” value is reported as “did not survive”.
